Changes are numbered by the printed parent chain.
Legend:
Test in all cases: Inhibition Assay
[1] = target: T1, Beta-hexosaminidase subunit beta (Homo sapiens, UniProt P07686)
T1 sequence (P07686 whole entry): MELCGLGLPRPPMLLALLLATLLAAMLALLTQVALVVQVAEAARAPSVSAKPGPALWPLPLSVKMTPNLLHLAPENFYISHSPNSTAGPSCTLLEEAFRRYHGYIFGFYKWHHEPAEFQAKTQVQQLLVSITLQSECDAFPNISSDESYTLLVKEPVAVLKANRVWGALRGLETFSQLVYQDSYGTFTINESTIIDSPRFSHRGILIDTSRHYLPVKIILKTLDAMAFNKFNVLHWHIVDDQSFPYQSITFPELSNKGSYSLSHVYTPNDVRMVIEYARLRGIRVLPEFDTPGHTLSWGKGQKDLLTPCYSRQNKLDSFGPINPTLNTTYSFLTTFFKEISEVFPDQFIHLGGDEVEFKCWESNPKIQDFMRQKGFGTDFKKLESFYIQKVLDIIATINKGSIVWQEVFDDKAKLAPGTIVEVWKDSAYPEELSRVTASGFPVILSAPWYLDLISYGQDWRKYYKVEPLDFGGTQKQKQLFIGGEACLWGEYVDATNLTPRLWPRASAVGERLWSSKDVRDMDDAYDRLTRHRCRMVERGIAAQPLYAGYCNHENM
Protocol: (§1) Hexosaminidase activity assay was measured by fluorometry, VersaFluor Fluorometer from Bio-Rad.

[2] = target: T2, Beta-hexosaminidase subunit alpha (Homo sapiens, UniProt P06865)
T2 sequence (P06865 whole entry): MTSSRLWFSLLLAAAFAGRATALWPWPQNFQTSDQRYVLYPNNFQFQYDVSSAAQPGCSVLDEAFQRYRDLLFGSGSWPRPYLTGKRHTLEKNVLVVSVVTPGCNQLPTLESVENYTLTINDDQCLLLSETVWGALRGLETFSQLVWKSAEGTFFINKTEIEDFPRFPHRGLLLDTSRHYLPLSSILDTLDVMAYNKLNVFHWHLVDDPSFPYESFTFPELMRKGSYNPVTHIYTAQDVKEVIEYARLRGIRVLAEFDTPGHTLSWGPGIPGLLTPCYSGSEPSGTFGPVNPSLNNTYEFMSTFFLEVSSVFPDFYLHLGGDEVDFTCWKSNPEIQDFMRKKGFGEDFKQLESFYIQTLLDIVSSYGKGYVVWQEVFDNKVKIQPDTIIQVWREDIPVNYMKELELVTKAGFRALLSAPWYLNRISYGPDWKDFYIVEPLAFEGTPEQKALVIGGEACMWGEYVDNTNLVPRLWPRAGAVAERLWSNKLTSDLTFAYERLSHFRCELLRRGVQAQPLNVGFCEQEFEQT
Protocol: as §1

[3] = target: T3, Beta-hexosaminidase subunit beta (Homo sapiens, UniProt P07686); remark: listed apart in the source
T3 sequence (P07686 whole entry): T1 sequence (P07686 whole entry) with S62L
Protocol: as §1

Compound | Ki [1] | Ki [2] | Ki [3]
CC(=O)N[C@@H]1[C@@H](O)[C@H](O)[C@@H](OS(=O)(=O)O)N1C [Iminocyclitol, 8] | 5000 nM | 100 nM | –
CC1=NC2C(OC(OS(=O)(=O)O)C(O)C2O)S1 (stereo not given) [Iminocyclitol, 10] | 100000 nM | 10000 nM | –
CC(=O)N[C@H]1[C@@H](O)[C@H](O)[C@@H](CO)N1C [Iminocyclitol, 2] | 65 nM | – | –
CC(=O)N[C@@H]1[C@@H](O)[C@H](O)[C@@H](CO)N1C [Iminocyclitol, 4] | 24 nM | – | –
CC(=O)N[C@H]1N[C@H](CO)[C@@H](O)[C@@H]1O [Iminocyclitol, 3] | 40 nM | – | –
CC(=O)N[C@H]1CN[C@H](CO)[C@@H](O)[C@@H]1O | – | – | 1200 nM
CC(=O)NC1CN(C)C(CO)C(O)C1O (stereo not given) [Iminocyclitol, 6] | 860 nM | – | –
CC(=O)N[C@@H]1N[C@H](CO)[C@@H](O)[C@@H]1O [Iminocyclitol, 1] | 240 nM | – | –
